What was measured:
Experiment in all cases: relative viability (nuclei count vs DMSO), 5 days (fraction); higher = more cells survive
[1] = compound: CCN(CC)CCNC(=O)c1c(C)[nH]c(/C=C2\C(=O)Nc3ccc(F)cc32)c1C [Sunitinib] + Cc1cc(Nc2cc(N3CCN(C)CC3)nc(Sc3ccc(NC(=O)C4CC4)cc3)n2)n[nH]1 [Tozasertib] (partner 0.1 µM)
Procedure, shortened: (§1)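 Lung cancer cell lines were pin-tool dosed in 1536-well plates on the day after seeding, with either a lone drug or a fixed anchor-drug dose plus five library-drug doses (not always all listed) in √10 steps. Nuclei were counted on 4× images after 5 days. Relative viability is the ratio of treated-well to vehicle-well nuclei counts, with each value a median of duplicate plates.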

[2] = compound: CCN(CC)CCNC(=O)c1c(C)[nH]c(/C=C2\C(=O)Nc3ccc(F)cc32)c1C [Sunitinib] + CC1(C)CCC(c2ccc(Cl)cc2)=C(CN2CCN(c3ccc(C(=O)NS(=O)(=O)c4ccc(N[C@H](CCN5CCOCC5)CSc5ccccc5)c(S(=O)(=O)C(F)(F)F)c4)cc3)CC2)C1 [Navitoclax] (partner 0.5 µM)
Procedure, shortened: as §1

[3] = compound: CCN(CC)CCNC(=O)c1c(C)[nH]c(/C=C2\C(=O)Nc3ccc(F)cc32)c1C [Sunitinib] + C[C@@H](Oc1cc(-c2cnn(C3CCNCC3)c2)cnc1N)c1c(Cl)ccc(F)c1Cl [Crizotinib] (partner 1 µM)
Procedure, shortened: as §1

[4] = compound: CCN(CC)CCNC(=O)c1c(C)[nH]c(/C=C2\C(=O)Nc3ccc(F)cc32)c1C [Sunitinib] + O=C(CCCCCCC(=O)Nc1ccccc1)NO [Vorinostat] (partner 1 µM)
Procedure, shortened: as §1

## NCI-H2170
[1]; first compound 0.02 µM
  relative viability: 0.771
[1]; first compound 0.06325 µM
  relative viability: 0.961
[1]; first compound 0.2 µM
  relative viability: 0.715
[1]; first compound 0.6325 µM
  relative viability: 0.808
[1]; first compound 2 µM
  relative viability: 0.838
[2]; first compound 0.02 µM
  relative viability: 0.607
[2]; first compound 0.06325 µM
  relative viability: 0.681
[2]; first compound 0.2 µM
  relative viability: 0.572
[2]; first compound 0.6325 µM
  relative viability: 0.651
[2]; first compound 2 µM
  relative viability: 0.445
[3]; first compound 0.02 µM
  relative viability: 1.11
[3]; first compound 0.06325 µM
  relative viability: 1.12
[3]; first compound 0.2 µM
  relative viability: 1.34
[3]; first compound 0.6325 µM
  relative viability: 1.14
[3]; first compound 2 µM
  relative viability: 1.17
[4]; first compound 0.02 µM
  relative viability: 0.78
[4]; first compound 0.06325 µM
  relative viability: 0.826
[4]; first compound 0.2 µM
  relative viability: 0.927
[4]; first compound 0.6325 µM
  relative viability: 0.842
[4]; first compound 2 µM
  relative viability: 0.709

## HCC-15
[1]; first compound 0.02 µM
  relative viability: 0.407
[1]; first compound 0.06325 µM
  relative viability: 0.371
[1]; first compound 0.2 µM
  relative viability: 0.468
[1]; first compound 0.6325 µM
  relative viability: 0.411
[1]; first compound 2 µM
  relative viability: 0.651
[2]; first compound 0.02 µM
  relative viability: 0.705
[2]; first compound 0.06325 µM
  relative viability: 0.765
[2]; first compound 0.6325 µM
  relative viability: 0.744
[2]; first compound 2 µM
  relative viability: 0.691
[3]; first compound 0.02 µM
  relative viability: 0.761
[3]; first compound 0.06325 µM
  relative viability: 0.84
[3]; first compound 0.2 µM
  relative viability: 0.958
[3]; first compound 0.6325 µM
  relative viability: 0.86
[3]; first compound 2 µM
  relative viability: 0.859
[4]; first compound 0.02 µM
  relative viability: 0.905
[4]; first compound 0.06325 µM
  relative viability: 0.93
[4]; first compound 0.2 µM
  relative viability: 0.984
[4]; first compound 0.6325 µM
  relative viability: 0.789
[4]; first compound 2 µM
  relative viability: 0.85

## NCI-H1650
[1]; first compound 0.02 µM
  relative viability: 0.323
[1]; first compound 0.06325 µM
  relative viability: 0.416
[1]; first compound 0.2 µM
  relative viability: 0.382
[1]; first compound 0.6325 µM
  relative viability: 0.321
[1]; first compound 2 µM
  relative viability: 0.245
[2]; first compound 0.02 µM
  relative viability: 1.48
[2]; first compound 0.06325 µM
  relative viability: 1.18
[2]; first compound 0.2 µM
  relative viability: 1.4
[2]; first compound 0.6325 µM
  relative viability: 1.34
[2]; first compound 2 µM
  relative viability: 1.33
[3]; first compound 0.02 µM
  relative viability: 0.821
[3]; first compound 0.06325 µM
  relative viability: 0.903
[3]; first compound 0.2 µM
  relative viability: 1.14
[3]; first compound 0.6325 µM
  relative viability: 0.991
[3]; first compound 2 µM
  relative viability: 0.829
[4]; first compound 0.02 µM
  relative viability: 0.558
[4]; first compound 0.06325 µM
  relative viability: 0.606
[4]; first compound 0.2 µM
  relative viability: 0.752
[4]; first compound 0.6325 µM
  relative viability: 0.659
[4]; first compound 2 µM
  relative viability: 0.582

## NCI-H2347
[1]; first compound 0.02 µM
  relative viability: 0.599
[1]; first compound 0.06325 µM
  relative viability: 0.481
[1]; first compound 0.2 µM
  relative viability: 0.59
[1]; first compound 0.6325 µM
  relative viability: 0.607
[1]; first compound 2 µM
  relative viability: 0.523
[2]; first compound 0.02 µM
  relative viability: 0.888
[2]; first compound 0.06325 µM
  relative viability: 0.825
[2]; first compound 0.2 µM
  relative viability: 0.836
[2]; first compound 0.6325 µM
  relative viability: 0.817
[2]; first compound 2 µM
  relative viability: 0.818
[3]; first compound 0.02 µM
  relative viability: 0.665
[3]; first compound 0.06325 µM
  relative viability: 0.795
[3]; first compound 0.6325 µM
  relative viability: 0.731
[3]; first compound 2 µM
  relative viability: 0.822
[4]; first compound 0.02 µM
  relative viability: 0.648
[4]; first compound 0.06325 µM
  relative viability: 0.653
[4]; first compound 0.2 µM
  relative viability: 0.723
[4]; first compound 0.6325 µM
  relative viability: 0.554
[4]; first compound 2 µM
  relative viability: 0.757

## NCI-H2087
[1]; first compound 0.02 µM
  relative viability: 0.253
[1]; first compound 0.06325 µM
  relative viability: 0.259
[1]; first compound 0.2 µM
  relative viability: 0.329
[1]; first compound 0.6325 µM
  relative viability: 0.284
[1]; first compound 2 µM
  relative viability: 0.233
[2]; first compound 0.02 µM
  relative viability: 0.976
[2]; first compound 0.06325 µM
  relative viability: 0.99
[2]; first compound 0.2 µM
  relative viability: 1.14
[2]; first compound 0.6325 µM
  relative viability: 1.01
[2]; first compound 2 µM
  relative viability: 0.969
[3]; first compound 0.02 µM
  relative viability: 0.909
[3]; first compound 0.06325 µM
  relative viability: 1.09
[3]; first compound 0.2 µM
  relative viability: 1.15
[3]; first compound 0.6325 µM
  relative viability: 0.967
[3]; first compound 2 µM
  relative viability: 0.791
[4]; first compound 0.02 µM
  relative viability: 0.748
[4]; first compound 0.06325 µM
  relative viability: 0.664
[4]; first compound 0.2 µM
  relative viability: 0.667
[4]; first compound 0.6325 µM
  relative viability: 0.715
[4]; first compound 2 µM
  relative viability: 0.712

From the supplement of paper PMC10307832
